pIC50: −log10 of the molar value.
Test system: human CTGF promoter region containing TGF-β responsive element
Assay: Luciferase assay of CTGF promoter activity in Ms0-2-3 cells stimulated with TGF-β
Assay type: cell-based
Settings: Mesangial cell; Ms0-2-3 rat mesangial cells, TGF-β 2 ng/ml stimulation, luciferase activity after 24 hours; read-out: IC50 (inhibitory rate against CTGF promoter activity)
Description: Several kidneys of 6 to 8-week-old male Wistar rats were perfused with sterilized phosphate buffered saline (PBS) and excised. Glomeruli were isolated from the cortex by a sieving method (with 180, 125 or 63 μm mesh). Isolated glomeruli were cultured in RPMI1640 medium containing 20% bovine serum, 1% penicillin-streptomycin and 1% Hepes buffer at 37° C. under 5% carbon dioxide (CO2) atmosphere. After 3 weeks, the medium was changed to the new one. After 4 weeks, mesangial cells which proliferated and became confluent were diluted 2 to 5 times and subcultured. Subcultures were repeated over 20 times, and mesangial cells cultured in usual RPMI1640 medium containing 10% bovine serum, 1% penicillin-streptomycin and 1% Hepes buffer were cloned by a limiting dilution method to establish cell line Ms0-2. […]
Luciferase assay was performed with Ms0-2-3 cells which were cultured with serum-free medium for 48 hours. […] Substrate was added thereto and luciferase activity of each well was measured by luminometer. Enhancement of luciferase activity by TGF-β stimulation (without a compound) was determined as 100% and the inhibitory rate of activity by addition of the compound was calculated. The value obtained from the inhibitory curve was judged as the inhibitory rate against CTGF promoter activity and determined as IC50 value. […]

pIC50: 6.99
Compound: O=C(Nc1cccc(C(F)(F)F)c1)c1cc(-c2ccc(OC(F)(F)F)cc2)ccc1O [Compound 43]
